Assay results as given in PMC12647645, “Structural interactions of BWC0977 with Klebsiella pneumoniae topoisomerase IV and biochemical basis of its broad-spectrum activity” (Communications Biology, 2025).
In brackets after ≈: the same amount, converted by molar mass. Several values for one entry are separate records, joined by “and”; a condition that tells them apart may be missing. Identical values can stand only once.

Tests used:
Human topo IIα = Human topo IIα (Homo sapiens, UniProt P11388); test: Human topo IIα decatenation assay; type: biochemical
Method: Human topo IIα (0.9 nM) and topo IIß (2.2 nM) decatenation assays were performed following the same protocol used for bacterial topoisomerase IV decatenation assays. The assay buffer was made of 50 mM Tris. HCl (pH 7.5), 125 mM NaCl, 10 mM MgCl2, 5 mM DTT, and 100 μg/mL albumin.

[1] = target: P. aeruginosa topoisomerase IV (Pseudomonas aeruginosa, UniProt Q9HUJ8+Q9HUK1); test: Topoisomerase IV decatenation assay, P. aeruginosa; type: biochemical; design: Topo IV decatenation inhibition response: unit not given here
Method: Topoisomerase IV decatenation reactions were performed using 2.5 nM E. coli enzyme and 60 ng kinetoplast DNA (kDNA) in an assay buffer containing 50 mM HEPES-KOH (pH 7.6), 100 mM potassium glutamate, 10 mM magnesium acetate, 10 mM DTT, 1 mM ATP, and 50 μg/mL albumin. Assays with P. aeruginosa topoisomerase IV (3 nM) were conducted in a similar buffer but with 50 mM HEPES-KOH (pH 7.9), 100 mM potassium glutamate, 6 mM magnesium acetate, 6 mM DTT, 1 mM ATP, 2 mM spermidine, and 50 μg/mL albumin. For S. aureus topoisomerase IV assay, the reactions contained 4 nM enzyme in an assay buffer composed of 50 mM Tris-HCl (pH 7.5), 5 mM MgCl₂, 5 mM DTT, 1.5 mM ATP, 350 mM potassium glutamate, and 0.05 mg/mL albumin. The procedures followed were consistent with those used in the supercoiling assays. Decatenated minicircles were resolved on 0.8% agarose gels, while the kDNA substrate remained in the wells. Gels were stained with 0.8 μg/mL ethidium bromide solution for 10 min, followed by destaining. DNA bands were visualized using a gel documentation system, and compound inhibition analysis was carried out using the same procedures described for the supercoiling assays.

E. coli BAA 2471 = test: microbe, parasite or virus in culture; type: cell-based; conditions: Escherichia coli, BAA2471
E. coli ATCC 25922 [2] = conditions: >4× MIC; cited from earlier work
E. coli = conditions: ref 6 (Hameed P et al., 2024); cited from earlier work
S. aureus = conditions: ref 6 (Hameed P et al., 2024); cited from earlier work
E. coli tolC strain = test: MIC, efflux-deficient strain; type: cell-based
E. coli BAA 2469 = test: microbe, parasite or virus in culture; type: cell-based; conditions: Escherichia coli, BAA2469
E. coli ATCC 25922 [3] = test: MIC broth microdilution; type: cell-based; conditions: Escherichia coli, ATCC25922
E. coli topoisomerase IV = target: T1, E. coli topoisomerase IV (Escherichia coli, UniProt P0AFI2+P20083); test: biochemical; type: biochemical
T1 construct: purchased Inspiralis

[4] = tested on: E. coli MG1655 (GyrA WT, ParC WT); test: microbe, parasite or virus in culture; type: cell-based; conditions: Escherichia coli
[5] = tested on: E. coli MG1655 GyrA D82N, ParC WT; test: microbe, parasite or virus in culture; type: cell-based; conditions: Escherichia coli

T1 sequence (P20083 whole entry): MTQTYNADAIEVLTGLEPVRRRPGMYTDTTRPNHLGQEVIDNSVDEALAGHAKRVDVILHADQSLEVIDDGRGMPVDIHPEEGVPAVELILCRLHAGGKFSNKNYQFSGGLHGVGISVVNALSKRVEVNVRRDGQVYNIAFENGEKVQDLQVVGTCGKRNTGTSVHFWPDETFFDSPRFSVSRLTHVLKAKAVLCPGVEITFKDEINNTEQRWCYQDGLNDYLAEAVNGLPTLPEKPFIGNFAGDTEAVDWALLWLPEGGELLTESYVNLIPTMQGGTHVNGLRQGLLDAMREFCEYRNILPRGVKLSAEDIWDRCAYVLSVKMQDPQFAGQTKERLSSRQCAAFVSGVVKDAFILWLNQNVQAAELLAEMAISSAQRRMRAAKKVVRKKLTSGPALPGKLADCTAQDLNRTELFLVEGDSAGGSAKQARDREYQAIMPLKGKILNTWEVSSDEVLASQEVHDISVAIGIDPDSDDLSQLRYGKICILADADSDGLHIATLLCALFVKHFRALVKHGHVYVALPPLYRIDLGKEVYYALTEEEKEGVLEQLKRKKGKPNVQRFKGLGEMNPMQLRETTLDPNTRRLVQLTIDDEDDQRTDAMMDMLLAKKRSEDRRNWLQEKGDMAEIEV
T1 sequence (P0AFI2 whole entry): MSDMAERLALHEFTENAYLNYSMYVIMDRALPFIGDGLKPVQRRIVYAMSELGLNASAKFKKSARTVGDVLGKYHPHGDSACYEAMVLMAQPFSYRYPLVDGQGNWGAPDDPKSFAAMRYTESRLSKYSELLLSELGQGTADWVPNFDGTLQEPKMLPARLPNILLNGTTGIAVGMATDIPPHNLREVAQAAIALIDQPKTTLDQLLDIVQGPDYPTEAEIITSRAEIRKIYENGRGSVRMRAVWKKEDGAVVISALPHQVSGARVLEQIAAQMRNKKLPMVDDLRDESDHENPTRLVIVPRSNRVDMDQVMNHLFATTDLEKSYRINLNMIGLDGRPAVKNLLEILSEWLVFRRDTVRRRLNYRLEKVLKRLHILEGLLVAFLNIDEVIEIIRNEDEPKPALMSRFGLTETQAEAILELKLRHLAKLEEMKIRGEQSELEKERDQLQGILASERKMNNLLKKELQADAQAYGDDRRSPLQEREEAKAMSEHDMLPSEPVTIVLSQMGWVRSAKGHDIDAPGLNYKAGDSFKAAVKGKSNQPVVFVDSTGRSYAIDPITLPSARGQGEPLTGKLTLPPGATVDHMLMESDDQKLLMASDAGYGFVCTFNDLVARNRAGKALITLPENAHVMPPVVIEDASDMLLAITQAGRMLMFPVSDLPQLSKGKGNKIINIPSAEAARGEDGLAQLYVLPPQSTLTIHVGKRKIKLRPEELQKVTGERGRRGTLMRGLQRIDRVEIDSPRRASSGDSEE
P. aeruginosa topoisomerase IV, sequence (Q9HUK1 whole entry): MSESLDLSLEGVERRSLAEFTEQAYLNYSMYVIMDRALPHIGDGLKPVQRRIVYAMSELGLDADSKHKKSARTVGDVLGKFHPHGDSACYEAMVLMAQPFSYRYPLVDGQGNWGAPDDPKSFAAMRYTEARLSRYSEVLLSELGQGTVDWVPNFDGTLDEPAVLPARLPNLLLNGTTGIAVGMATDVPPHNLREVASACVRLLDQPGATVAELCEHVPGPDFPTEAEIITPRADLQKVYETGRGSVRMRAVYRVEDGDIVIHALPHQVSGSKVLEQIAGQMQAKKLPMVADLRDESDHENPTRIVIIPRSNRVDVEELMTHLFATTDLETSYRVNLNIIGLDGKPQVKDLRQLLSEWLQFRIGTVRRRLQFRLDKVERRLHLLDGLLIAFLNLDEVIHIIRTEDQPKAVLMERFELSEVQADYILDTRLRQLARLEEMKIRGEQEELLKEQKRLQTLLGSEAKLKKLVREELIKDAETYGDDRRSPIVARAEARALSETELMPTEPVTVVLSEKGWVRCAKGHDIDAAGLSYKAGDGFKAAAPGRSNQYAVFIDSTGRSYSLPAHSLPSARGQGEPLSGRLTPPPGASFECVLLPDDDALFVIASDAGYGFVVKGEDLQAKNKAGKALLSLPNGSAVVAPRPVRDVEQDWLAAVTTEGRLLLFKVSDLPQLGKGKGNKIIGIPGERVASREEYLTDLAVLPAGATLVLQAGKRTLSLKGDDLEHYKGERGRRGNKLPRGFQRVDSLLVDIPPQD
P. aeruginosa topoisomerase IV, sequence (Q9HUJ8 whole entry): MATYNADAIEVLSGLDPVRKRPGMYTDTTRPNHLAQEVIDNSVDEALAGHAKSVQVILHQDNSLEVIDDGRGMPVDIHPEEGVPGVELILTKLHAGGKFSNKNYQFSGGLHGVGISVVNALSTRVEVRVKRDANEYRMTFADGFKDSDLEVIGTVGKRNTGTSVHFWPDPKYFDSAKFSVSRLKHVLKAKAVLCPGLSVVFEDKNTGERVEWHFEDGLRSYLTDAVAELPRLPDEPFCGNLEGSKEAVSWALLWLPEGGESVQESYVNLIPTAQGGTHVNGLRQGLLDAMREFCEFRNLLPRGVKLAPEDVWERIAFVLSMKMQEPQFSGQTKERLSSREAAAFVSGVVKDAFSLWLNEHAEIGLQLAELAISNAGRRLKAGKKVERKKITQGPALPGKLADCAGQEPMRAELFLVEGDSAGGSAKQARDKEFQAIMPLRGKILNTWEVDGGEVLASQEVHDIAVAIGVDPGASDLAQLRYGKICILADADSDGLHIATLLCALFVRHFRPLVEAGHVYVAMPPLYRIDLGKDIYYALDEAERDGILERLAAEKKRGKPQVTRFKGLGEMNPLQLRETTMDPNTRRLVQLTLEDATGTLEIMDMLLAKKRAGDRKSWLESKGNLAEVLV
Human topo IIα, sequence (P11388 whole entry): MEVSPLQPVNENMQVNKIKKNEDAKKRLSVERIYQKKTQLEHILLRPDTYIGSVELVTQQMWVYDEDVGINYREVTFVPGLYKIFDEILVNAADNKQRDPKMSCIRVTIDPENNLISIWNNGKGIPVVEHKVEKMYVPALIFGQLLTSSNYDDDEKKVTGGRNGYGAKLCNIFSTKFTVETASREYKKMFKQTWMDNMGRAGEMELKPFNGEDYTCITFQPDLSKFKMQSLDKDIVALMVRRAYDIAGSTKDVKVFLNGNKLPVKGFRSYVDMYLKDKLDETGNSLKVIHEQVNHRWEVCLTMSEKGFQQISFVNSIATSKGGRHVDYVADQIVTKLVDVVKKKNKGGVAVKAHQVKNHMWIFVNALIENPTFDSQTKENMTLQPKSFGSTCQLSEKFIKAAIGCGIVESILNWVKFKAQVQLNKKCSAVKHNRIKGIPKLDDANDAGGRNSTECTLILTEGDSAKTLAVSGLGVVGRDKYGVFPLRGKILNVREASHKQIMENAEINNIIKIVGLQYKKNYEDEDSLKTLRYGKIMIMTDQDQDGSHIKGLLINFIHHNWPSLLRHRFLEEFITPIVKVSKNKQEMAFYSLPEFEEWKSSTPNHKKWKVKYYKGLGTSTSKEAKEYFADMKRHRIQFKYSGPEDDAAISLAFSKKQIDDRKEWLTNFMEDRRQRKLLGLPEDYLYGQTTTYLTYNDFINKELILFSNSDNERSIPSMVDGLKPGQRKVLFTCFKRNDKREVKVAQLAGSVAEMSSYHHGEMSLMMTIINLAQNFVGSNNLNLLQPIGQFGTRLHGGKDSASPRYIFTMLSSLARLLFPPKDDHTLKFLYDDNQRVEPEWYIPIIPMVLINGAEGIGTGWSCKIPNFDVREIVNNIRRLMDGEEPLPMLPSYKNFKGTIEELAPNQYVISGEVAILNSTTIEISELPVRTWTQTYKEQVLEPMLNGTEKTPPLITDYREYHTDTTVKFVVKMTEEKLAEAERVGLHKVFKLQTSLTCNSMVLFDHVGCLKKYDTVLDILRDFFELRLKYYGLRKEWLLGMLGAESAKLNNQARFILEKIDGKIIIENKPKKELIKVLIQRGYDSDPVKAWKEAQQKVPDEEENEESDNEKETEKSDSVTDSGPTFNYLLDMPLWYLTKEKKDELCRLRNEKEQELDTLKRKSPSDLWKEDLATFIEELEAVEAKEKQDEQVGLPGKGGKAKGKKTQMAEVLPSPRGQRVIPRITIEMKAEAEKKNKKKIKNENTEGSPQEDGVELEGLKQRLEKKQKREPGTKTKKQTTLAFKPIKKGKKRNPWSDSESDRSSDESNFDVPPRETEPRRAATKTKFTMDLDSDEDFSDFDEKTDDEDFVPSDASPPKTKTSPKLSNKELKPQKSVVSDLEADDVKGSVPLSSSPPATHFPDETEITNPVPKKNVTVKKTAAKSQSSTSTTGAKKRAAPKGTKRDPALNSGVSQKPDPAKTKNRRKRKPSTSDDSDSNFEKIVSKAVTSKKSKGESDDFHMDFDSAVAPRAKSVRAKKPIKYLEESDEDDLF

Cn1c(=O)ccc2ccc(F)c(CCNC[C@H]3CN(c4cnc5c(n4)NC(=O)CO5)C(=O)O3)c21 [BWC0977]
selectivity for bacterial enzymes over human topoisomerases IIα and IIβ (Human topo IIα): more than 5000 fold | IC50 (Human topo IIα; read-out: IC50 Human topo IIα decatenation): 113000 ± 13000 nM | IC50 [1]: 77 nM | Topo IV decatenation inhibition response ([1]; P. aeruginosa topo IV, compound 0.0114 μM, source data Fig 2B, listed as 977, 0.0114 µM): 7.06 | inhibition at 0.0114 µM ([1]; P. aeruginosa topo IV, compound 0.0114 μM, source data Fig 2B, read-out: Topo IV decatenation inhibition response): 10.9% | Topo IV decatenation inhibition response ([1]; P. aeruginosa topo IV, compound 0.0343 μM, source data Fig 2B, listed as 977, 0.0343 µM): 24.14 | inhibition at 0.0343 µM ([1]; P. aeruginosa topo IV, compound 0.0343 μM, source data Fig 2B, read-out: Topo IV decatenation inhibition response): 18.9% | Topo IV decatenation inhibition response ([1]; P. aeruginosa topo IV, compound 0.1029 μM, source data Fig 2B, listed as 977, 0.1029 µM): 63.17 | inhibition at 0.1029 µM ([1]; P. aeruginosa topo IV, compound 0.1029 μM, source data Fig 2B, read-out: Topo IV decatenation inhibition response): 61.6% | Topo IV decatenation inhibition response ([1]; P. aeruginosa topo IV, compound 0.3086 μM, source data Fig 2B, listed as 977, 0.3086 µM): 85.90 | inhibition at 0.3086 µM ([1]; P. aeruginosa topo IV, compound 0.3086 μM, source data Fig 2B, read-out: Topo IV decatenation inhibition response): 88.3% | Topo IV decatenation inhibition response ([1]; P. aeruginosa topo IV, compound 0.9259 μM, source data Fig 2B, listed as 977, 0.9259 µM): 91.28 | inhibition at 0.9259 µM ([1]; P. aeruginosa topo IV, compound 0.9259 μM, source data Fig 2B, read-out: Topo IV decatenation inhibition response): 91.1% | Topo IV decatenation inhibition response ([1]; P. aeruginosa topo IV, compound 2.7778 μM, source data Fig 2B, listed as 977, 2.7778 µM): 91.48 | inhibition at 2.7778 µM ([1]; P. aeruginosa topo IV, compound 2.7778 μM, source data Fig 2B, read-out: Topo IV decatenation inhibition response): 94.5% | Topo IV decatenation inhibition response ([1]; P. aeruginosa topo IV, compound 8.3333 μM, source data Fig 2B, listed as 977, 8.3333 µM): 92.85 | inhibition at 8.3333 µM ([1]; P. aeruginosa topo IV, compound 8.3333 μM, source data Fig 2B, read-out: Topo IV decatenation inhibition response): 97.1% | Topo IV decatenation inhibition response ([1]; P. aeruginosa topo IV, compound 25 μM, source data Fig 2B, listed as 977, 25 µM): 94.54 | inhibition at 25 µM ([1]; P. aeruginosa topo IV, compound 25 μM, source data Fig 2B, read-out: Topo IV decatenation inhibition response): 99.2% | MIC (E. coli BAA 2471): 0.5 µg/mL (≈ 1.07 µM) | resistant colonies on exposure (E. coli ATCC 25922 [2]): no resistant colonies | MIC90 against diverse global isolates (E. coli): 0.5 µg/mL (≈ 1.07 µM) | MIC90 against diverse global isolates (S. aureus): 0.03 µg/mL (≈ 0.064 µM) | difference in MICs between tolC strain and wild-type strain (E. coli tolC strain): 10 fold | MIC (E. coli tolC strain; Escherichia coli): 0.001 µg/mL (≈ 0.00213 µM) | MIC (E. coli BAA 2469): 0.01 µg/mL (≈ 0.0213 µM) | MIC (E. coli ATCC 25922 [3]): 0.06 µg/mL (≈ 0.128 µM) | Topo IV decatenation inhibition response (E. coli topoisomerase IV; E. coli topo IV, compound 0.008 μM, source data Fig 2A, listed as 977, 0.008 µM): 28.08 and 39.25 | inhibition at 0.008 µM (E. coli topoisomerase IV; E. coli topo IV, compound 0.008 μM, source data Fig 2A, read-out: Topo IV decatenation inhibition response): 30.8% | Topo IV decatenation inhibition response (E. coli topoisomerase IV; E. coli topo IV, compound 0.074 μM, source data Fig 2A, listed as 977, 0.074 µM): 89.53 and 79.92 | inhibition at 0.074 µM (E. coli topoisomerase IV; E. coli topo IV, compound 0.074 μM, source data Fig 2A, read-out: Topo IV decatenation inhibition response): 75.6% | Topo IV decatenation inhibition response (E. coli topoisomerase IV; E. coli topo IV, compound 0.222 μM, source data Fig 2A, listed as 977, 0.222 µM): 92.32 and 88.38 | inhibition at 0.222 µM (E. coli topoisomerase IV; E. coli topo IV, compound 0.222 μM, source data Fig 2A, read-out: Topo IV decatenation inhibition response): 83.4% | Topo IV decatenation inhibition response (E. coli topoisomerase IV; E. coli topo IV, compound 2 μM, source data Fig 2A, listed as 977, 2 µM): 94.13 and 90.30 | inhibition at 2 µM (E. coli topoisomerase IV; E. coli topo IV, compound 2 μM, source data Fig 2A, read-out: Topo IV decatenation inhibition response): 84.8% | higher inhibition potency compared to compound 17a (E. coli topoisomerase IV; E. coli topoisomerase IV): ~ 20 fold | IC50 (E. coli topoisomerase IV; read-out: IC50 E. coli topo IV decatenation): 13 ± 4 nM | MIC [4]: 0.03 µg/mL (≈ 0.064 µM) | MIC [5]: 0.08 µg/mL (≈ 0.171 µM)
